Where no end group is shown, it is not given here. Peg = not defined here

Holding throughout (assay type): binding
In one experiment the test system is CST 9733 (anti-H3K27me3). Briefly: Histone peptide microarray, CST 9733. The settings on record: histone peptide array signal normalized to the highest peptide average per subarray, hits; CST 9733 LOT:14 dilution 1:5,000. As for the experimental part:
(§1) Peptide microarrays were fabricated using an Aushon 2470 microarrayer and used as described ([Cornett et al., 2017]) with the following modifications. Protein and antibody hybridization steps were performed in buffer containing 25 mM HEPES pH 7.5, 100 mM NaCl, 0.5% BSA (w/v), and 0.1% NP-40. Slides were washed 3 × 5 min in PBS supplemented with 0.1% Tween-20 between each hybridization step. Antibodies used were primary anti-GST (Sigma #7781, 1:2,000 dilution) and an AlexaFluor 647-labeled secondary antibody (Life Technologies A-21245, 1:5,000 dilution). […] Full lists of peptides queried by array analysis are in Supplementary Table S2.

Experiment [1] deals with Active Motif #39161, anti-H3K9me3. Briefly: Histone peptide microarray, Active Motif 39161. The settings on record: Active Motif 39161 (anti-H3K9me3) hits. As for the experimental part: as §1
A further experiment relates to 53BP1 TTD. The experiment is described as follows: Histone peptide microarray, 53BP1 TTD. The settings on record: 53BP1 TTD hits, average signal per peptide. As for the experimental part:
as §1

The test system of experiment [2] is Millipore #07-449, anti-H3K27me3. The experiment is described as follows: Histone peptide microarray, Millipore 07-449. Particulars: Millipore 07-449 (anti-H3K27me3) hits, average signal per peptide. As for the experimental part:
as §1

For experiment [3], the system named is Abcam #ab8895, anti-H3K4me1. Briefly: Histone peptide microarray, Abcam ab8895. The settings on record: Abcam ab8895 (anti-H3K4me1) hits, average signal per peptide. As for the experimental part:
as §1

As for “ARTK(Me3)QTARK(Ac)STGGK(Ac)APRK(Ac)QL-K(Biot)-NH2 [H3.1K4me3K9acK14acK18ac]”, the “Avg Signal” value was found to be 0.009625 in the experiment on CST 9733 (anti-H3K27me3), 0.004819 in experiment [1], 0.09733 in the experiment with 53BP1 TTD and 0.03443 in experiment [2].
As for “ARTK(Me3)QpTARKSTGGKAPRKQL-K(Biot)-NH2 [Peptide H3.1K4me3T6p]”, the “Avg Signal” value was 0.001818 in the experiment on CST 9733 (anti-H3K27me3), 0.02043 in experiment [1], 0.1846 in the experiment with 53BP1 TTD and 0.009429 in experiment [2].
Consider “ARTK(Me3)QTARK(Ac)STGGK(Ac)APRKQL-K(Biot)-NH2 [H3.1K4me3K9acK14ac]”, for which the “Avg Signal” value in the experiment on CST 9733 (anti-H3K27me3) was 0.005042; in experiment [1], 0.01712; with 53BP1 TTD, 0.06229; in experiment [2], 0.05366.
Consider “KSAPSTGGVK(Me)KPHRYRPGT-G-K(Biot)-NH2 [Peptide H3.3K36me1]”, for which the “Avg Signal” value in experiment [3] is given as 0.003496; in the experiment with CST 9733 (anti-H3K27me3), 0.0007823; in experiment [1], 0.0005946; in experiment [2] it was 0.009576.
As for “ARTK(Me3)QTARK(Ac)STGGKAPRKQL-K(Biot)-NH2 [H3.1K4me3K9ac]”, the “Avg Signal” value in the experiment on CST 9733 (anti-H3K27me3) is 0.008895; in experiment [1] it was 0.02897; in the experiment on 53BP1 TTD, 0.2378; in experiment [2] it was 0.05697.
The matching figures for “ARTK(Me3)QTARK(Ac)pSTGGKAPRKQL-K(Biot)-NH2 [H3.1K4me3K9acS10p]”: 0.004944, 0.01343, 0.1299 and 0.007736.
“ARTKQTAR-NleSTGGKAPRKQL-Peg-Biot [Peptide H3.1K9-Nle]”: the “Avg Signal” value in experiment [3] amounted to 0.1441; in the experiment on CST 9733 (anti-H3K27me3), 0.0002703; in experiment [2], 0.001582.
With “ARTKQTAR(Me)KSTGGKAPRKQL-Peg-Biot (chain 2 KSTGGKAPRKQL-{Peg-Biot}; not fully specified; reading uncertain) [Peptide H3.1R8me1]”, the “Avg Signal” value in experiment [3] is 0.1046; in the experiment with CST 9733 (anti-H3K27me3) it was 0.01735.
With “AR(Me2a)TK(Me3)QTARK(Ac)pSTGGK(Ac)APRK(Ac)QL-K(Biot)-NH2 [H3.1R2me2aK4me3K9acS10pK14acK18ac]”, the “Avg Signal” value in the experiment on CST 9733 (anti-H3K27me3) was determined as 0.001633; in experiment [1], 0.01104; with 53BP1 TTD, 0.02248; in experiment [2], 0.0008355.
With “ARTKQpTARK(Me3)STGGKAPRKQL-K(Biot)-NH2 [Peptide H3.1T6pK9me3]”, the “Avg Signal” value in the experiment on CST 9733 (anti-H3K27me3) came to 0.01471; in experiment [1] it was 0.3154; with 53BP1 TTD, 0.226; in experiment [2], 0.02132.
Consider “Ac-SGCitGK(Ac)QGGKARAKAKTR-Peg-Biot [Peptide H2ACit3K5ac]”, for which the “Avg Signal” value in the experiment on CST 9733 (anti-H3K27me3) is 1.355e-5; in the experiment on 53BP1 TTD, 0.009599.
With “SGRGK(Ac)QGGK(Ac)ARAK(Ac)AK(Ac)TR-Peg-Biot [H2AK5acK9acK13acK15ac(noN-ac)]”, the “Avg Signal” value in the experiment on CST 9733 (anti-H3K27me3) is 6.218e-5; with 53BP1 TTD, 0.2522.
Take “AR(Me2a)TK(Me3)QTARKSTGGKAPRKQL-K(Biot)-NH2 [H3.1R2me2aK4me3]”: the “Avg Signal” value with CST 9733 (anti-H3K27me3) turned out to be 0.001321; in experiment [1], 0.01254; with 53BP1 TTD, 0.09687; in experiment [2] it was 0.02156.
For the substance “AR(Me2s)TK(Me3)QTARKSTGGKAPRKQL-K(Biot)-NH2 [H3.1R2me2sK4me3]”, the “Avg Signal” value was 0.00218 with CST 9733 (anti-H3K27me3), 0.01035 in experiment [1], 0.1898 in the experiment with 53BP1 TTD and 0.0135 in experiment [2].
Consider “ARTK(Me3)QpTARK(Ac)STGGK(Ac)APRK(Ac)QL-K(Biot)-NH2 [H3.1K4me3T6pK9acK14acK18ac]”, for which the “Avg Signal” value in the experiment on CST 9733 (anti-H3K27me3) is listed as 0.004429; in experiment [1], 0.005164; in the experiment with 53BP1 TTD it was 0.03157; in experiment [2], 0.0001463.
Take “ACitTK(Me3)QTARKSTGGKAPRKQL-K(Biot)-NH2 [H3.1Cit2K4me3]”: the “Avg Signal” value in the experiment with CST 9733 (anti-H3K27me3) is on record as 0.00216; in experiment [1] it was 0.009245; in the experiment with 53BP1 TTD, 0.1746; in experiment [2], 0.01263.
On the same counts, the results for “ARTK(Me3)QTARKSTGGK(Ac)APRK(Ac)QL-K(Biot)-NH2 [H3.1K4me3K14acK18ac]” are 0.006975, 0.0136, 0.09432 and 0.01453.
For “ARTK(Me3)QTARK(Ac)STGGKAPRK(Ac)QL-K(Biot)-NH2 [H3.1K4me3K9acK18ac]”, the “Avg Signal” value was determined as 0.009868 with CST 9733 (anti-H3K27me3), 0.01916 in experiment [1], 0.0915 in the experiment on 53BP1 TTD and 0.05409 in experiment [2].
For the substance “Ac-SGRGKGGK(Ac)GLGK(Ac)GGAKRHRKVLR-Peg-Biot [Peptide H4K8acK12ac]”, the “Avg Signal” value stood at 0.002906 in experiment [3], 0.0001351 in the experiment with CST 9733 (anti-H3K27me3), 0.0006444 in experiment [1] and 0.006396 in experiment [2].
Turning to “PEPAK(Me3)SAPAPKKGSKKAVTKAQKK-Peg-Biot [Peptide H2BK5me3]”, the “Avg Signal” value in the experiment with CST 9733 (anti-H3K27me3) was 0.00351; in experiment [1] it was 0.03906; with 53BP1 TTD, 0.04404; in experiment [2], 0.1635.
For “PEPAK(Me2)SAPAPKKGSKKAVTKAQKK-Peg-Biot [Peptide H2BK5me2]”, the “Avg Signal” value in the experiment with CST 9733 (anti-H3K27me3) stood at 0.0008674; with 53BP1 TTD, 0.1922.
As for “ARTK(Ac)QTARK(Ac)STGGK(Ac)APRK(Ac)QL-K(Biot)-NH2 [H3.1K4acK9acK14acK18ac]”, the “Avg Signal” value came out at 0.0003418 with CST 9733 (anti-H3K27me3), 0.05366 in experiment [1] and 0.1399 in the experiment with 53BP1 TTD.
With “KSAPSTGGVK(Me3)KPHRYKPGT-G-K(Biot)-NH2 [yH3K36me3]”, the “Avg Signal” value is 0.0003217 in the experiment on CST 9733 (anti-H3K27me3) and 0.1137 with 53BP1 TTD.
For the substance “Ac-SGRGK(Me)GGK(Ac)GLGK(Ac)GGAK(Ac)RHRKVLR-Peg-Biot [H4K5me1K8acK12acK16ac]”, the “Avg Signal” value is recorded as 0.01497 in experiment [3], 1.398e-6 with CST 9733 (anti-H3K27me3), 0.0048 in experiment [1] and 0.002528 in experiment [2].
On to “ARTK(Me3)QTARKpSTGGKAPRKQL-K(Biot)-NH2 [H3.1K4me3S10p]”, for which the “Avg Signal” value is on record as 0.002306 with CST 9733 (anti-H3K27me3), 0.0006195 in experiment [1], 0.00608 in the experiment on 53BP1 TTD and 0.003491 in experiment [2].
For “Ac-SGRGK(But)GGK(But)GLGK(But)GGAKRHRKVLR-Peg-Biot [H4K5butK8butK12but]”, the “Avg Signal” value in experiment [3] was 0.000718; with CST 9733 (anti-H3K27me3) it was 0.0001351; in experiment [1], 0.01514; in experiment [2], 0.01591.
On the same counts, the results for “Ac-SGRGKGGKGLGK(Ac)GGAKRHRK(Ac)VLR-Peg-Biot [Peptide H4K12acK20ac]” are 0.005228, 0.0004147, 0.009155 and 0.007438.
Consider “Ac-GKGGAKRHRKVLRDNIQ-Peg-Biot [H4(11-27)]”, for which the “Avg Signal” value in the experiment with CST 9733 (anti-H3K27me3) is on record as 0.0004161; in experiment [1], 0.04504; with 53BP1 TTD, 0.128.

The values are drawn from article PMC7160673, “A Degenerate Peptide Library Approach to Reveal Sequence Determinants of Methyllysine-Driven Protein Interactions” (Frontiers in Cell and Developmental Biology, 2020).
